In patent publication US9175266B2, “Enhancement of natural killer (NK) cell proliferation and activity” (Gamida Cell Ltd., priority 2012, dated 2015):
Entries after “also recorded” stand apart in the source; their conditions may differ.

Tests used:
CD62L = CD62L expression on NK cell surface, by FACS; assay type: cell-based, human; settings: PB derived NK cells; SR1 10-1000 nM, 14 and 21 days, vs cytokines only; FIG. 3
Description: (§1) For FACS analysis cells were stained with the following fluorescent antibodies: CD15 FITC, Cat. No. 332778, CD14 FITC, Cat. No. 345784, CD3 APC, Cat. No. 345767, all from Becton Dickinson (San Jose, Calif., USA), CD62L PE, Cat. No. 304806 from BioLegend (San Diego, Calif., USA), CD56 FITC, Cat. No. 11-0569-42 from eBioscience (San Diego, Calif., USA) and CD45 PE, Cat. No. R7807 from Dako (Glostrup, Denmark) and anti-CD200R and anti-PD-1 fluorescent antibodies. The cells were washed with a PBS solution containing 1% BSA, and stained (at 4° C. for 30 min) with fluorescein isothiocyanate (FITC)- or phycoerythrin (PE)-conjugated antibodies or allophycocyanin (APC). The cells were then washed in the above buffer and analyzed using a FACScalibur® flow cytometer (Becton Dickinson, San Jose, Calif., USA). The cells were passed at a rate of up to 1000 cells/second, using a 488 nm or 661 nm argon laser beam as the light source for excitation. Emission of 10^4 cells was measured using logarithmic amplification, and analyzed using the CellQuest software (Becton Dickinson). Cells stained with FITC, PE and APC-conjugated isotype control antibodies were used to determine background fluorescence. […] NK cells were stained with specific antibodies for the specified surface markers (CD62L, CD200R, PD-1) after 3 weeks incubation with SR1, and then monitored by FACS.

CD3+CD56− cells = experiment: T-cell fraction (CD3+CD56-) in cultures of T-cell depleted peripheral blood NK cells, by FACS; assay type: cell-based, human; settings: 21 day cultures; SR1 10 to 1000 nM vs cytokines only (SR1 0); FIG. 2
Method: For depletion procedure, total nuclear cells from umbilical cord blood (CB), bone marrow (BM) or peripheral blood (PB) cells were layered on a Ficoll-Hypaque gradient (1.077 g/mL; Sigma), and centrifuged at 800×g for 30 minutes for separation of the mononuclear cells. The cells in the interface layer were collected and washed three times in phosphate-buffered saline (PBS) (Biological Industries, Israel) containing 0.5% HSA. Optionally, cells are not separated on the Ficoll-Hypaque gradient but washed three times in phosphate-buffered saline (PBS) (Biological Industries) containing 0.5% HSA (“total mononuclear fraction”). CD3 cells were depleted using the CD3 cell isolation kit (Miltenyi Biotec Bergisch, Gladbach, Germany) and the entire CD3 negative cell fraction was cultured. […] After negative depletion the cells were counted and characterized by FACS analysis. […] To estimate number of cells in culture, cell samples were counted following staining with trypan blue. […] The cells were then washed in the above buffer and analyzed using a FACScalibur® flow cytometer (Becton Dickinson, San Jose, Calif., USA). […] Emission of 10^4 cells was measured using logarithmic amplification, and analyzed using the CellQuest software (Becton Dickinson). Cells stained with FITC, PE and APC-conjugated isotype control antibodies were used to determine background fluorescence.

[1] = system: human peripheral blood NK cells; experiment: Ex-vivo expansion of T-cell depleted peripheral blood NK cells in culture with cytokines; assay type: cell-based
Method: For depletion procedure, total nuclear cells from umbilical cord blood (CB), bone marrow (BM) or peripheral blood (PB) cells were layered on a Ficoll-Hypaque gradient (1.077 g/mL; Sigma), and centrifuged at 800×g for 30 minutes for separation of the mononuclear cells. The cells in the interface layer were collected and washed three times in phosphate-buffered saline (PBS) (Biological Industries, Israel) containing 0.5% HSA. Optionally, cells are not separated on the Ficoll-Hypaque gradient but washed three times in phosphate-buffered saline (PBS) (Biological Industries) containing 0.5% HSA (“total mononuclear fraction”). CD3 cells were depleted using the CD3 cell isolation kit (Miltenyi Biotec Bergisch, Gladbach, Germany) and the entire CD3 negative cell fraction was cultured. […] After negative depletion the cells were counted and characterized by FACS analysis. […] To estimate number of cells in culture, cell samples were counted following staining with trypan blue. […] In order to calculate the number of NK cells on day 0, the total number of cells seeded on day 0 was multiplied by the percent of CD56+/CD3− cells measured by the FACS on day 0. […] In order to determine the number of NK cells in culture, the total number of cells in culture was multiplied by the percent of CD56+/CD3− cells measured with the FACS on days 14 or 21. […]

human NK cells = experiment: In-vivo homing and engraftment of cultured, CFSE-stained human NK cells in spleen of irradiated NSG mice; parameters: species or system NOD.Cg-Prkdcscid Il2rgtm1Wjl/SzJ (NSG) mice; settings: 15×10^6 NK cells cultured 2-3 weeks with SR1 vs without; irradiated (350 Rad) NSG mice; 4 days post infusion; FIG. 5
Method: NK cells were expanded with or without 1000 nM SR1, as described above. After 2 weeks in culture, cells were stained with CFSE and similar numbers (15×10^6) of cells were infused into irradiated (350 Rad) NSG mice. Mice were sacrificed 4-days post infusion. Spleens were analyzed for the homing and engraftment of human NK cells based on the CFSE fluorescence, in order to distinguish them from endogenous cells. Engraftment is expressed as the % of cells staining with CFSE. Irradiated (350 Rad) NOD.Cg-Prkdcscid Il2rgtm1Wjl/SzJ (NSG) mice received 15×10^6 cells from human peripheral blood NK (T-cell depleted) cultures maintained for up to 3 weeks with SR1 or without (SR1 0) SR1. Prior to infusion NK cells were stained with CFSE. Upon sacrifice of the mice 4 days post infusion, samples of spleen were evaluated by FACS for the percent of cells that are stained with CFSE.

PD-1 = PD-1 expression on NK cell surface, by FACS; assay type: cell-based, human; settings: PB derived NK cells; SR1 10-1000 nM, 14 and 21 days, vs cytokines only; FIG. 4B
Description: as §1

CD200R = CD200R expression on NK cell surface, by FACS; assay type: cell-based, human; settings: PB derived NK cells; SR1 10-1000 nM, 14 and 21 days, vs cytokines only; FIG. 4A
Description: as §1

CC(C)n1cnc2c(NCCc3ccc(O)cc3)nc(-c3csc4ccccc34)nc21 [SR1, 4-(2-(2-(benzo[b]thiophen-3-yl)-9-isopropyl-9H-purin-6-ylamino)ethyl)phenol]
expression of CD62L (CD62L): dramatically enhanced expression; also recorded: strongly enhanced expression | percentages of CD3+CD56− cells (T-cell fraction) (CD3+CD56− cells): less prominent than in control; also recorded: lower than in control cultures | cells in culture that were NK (CD56+CD3-) cells ([1]; CD3+ or CD3+/CD19+ depleted peripheral blood mononuclear cells (2-10% NK at seeding), 2-3 weeks in culture with SR1): more than 90% | NK expansion (fold increase relative to day 0) ([1]; day 21, SR1 10-1000 nM with cytokines (IL-2, IL-15) vs cytokines only (SR1 0), FIG. 1): greatly increased expansion; also recorded: significantly higher | homing and engraftment into spleen (% of cells staining with CFSE) (human NK cells): significantly higher; also recorded: increased localization and engraftment | expression of PD-1 (PD-1): reduced expression | expression of CD200R (CD200R): reduced expression
